# Assay results as given in patent US12466818B2, “Thienyl-aniline compounds for treatment of dermal disorders” (NFlection Therapeutics, Inc., priority 2018, dated 2025).
# pIC50: −log10 of the molar value. Where a name gives a salt, the structure may show the parent alone.
# Experiments:
# MEK1 = MEK1 (Homo sapiens (Human), UniProt Q02750); assay: MEK Inhibition Assay-2 (Z'-LYTE biochemical assay); conditions: Z'-LYTE assay of Example 37; read-out: IC50 against MEK1
# Experimental: MEK1 inhibitory activity of compounds were tested using the following procedure (protocol available at thermofisher.com/content/dam/LifeTech/migration/files/drug-discovery/pdfs.par.60256.file.dat/20130430%20ssbk %20customer %20protocol %20 and %20assa y %20conditions.pdf). The Z′-LYTE biochemical assay (ThermoFisher) employs a fluorescence-based, coupled-enzyme format and is based on the differential sensitivity of phosphorylated and non-phosphorylated peptides to proteolytic cleavage.
# Test compounds in 100% DMSO were screened in 1% DMSO (final) in the well. For 10 point titrations, 3-fold serial dilutions are conducted from the starting concentration of 30 μM.
# After the 1 hour incubation, 5 μL of a 1:1024 dilution of Development Reagent A (available from Invitrogen, catalog no. PV3295) was added.
# ATP solutions were diluted to a 4× working concentration in Kinase Buffer (50 mM HEPES pH 7.5, 0.01% BRIJ-35, 10 mM MgCl2, 1 mM EGTA). ATP Km apparent was previously determined using a Z′-LYTE assay. The Development Reagent was diluted in Development Buffer (available from Invitrogen, catalog no. P3127).
# Assay Protocol: 2.5 μL of 4× test compound or 100 nL of 100× Test Compound plus 2.4 μL Kinase Buffer, 5 μL of the 2× Peptide/Kinase Mixture, 2.5 μL of 4×ATP Solution were added to the plates and placed on a shake plate for 30-seconds. The kinase reaction was allowed to proceed for 60-minute at room temperature, before 5 μL of Development Reagent Solution was added, and the mixture agitated for 30-seconds on a shake plate. The mixture was incubated for 60-minute at room temperature. Fluorescence was measured using a plate reader and the data were analyzed.
# This control yielded 100% cleaved peptide in the Development Reaction. The 100% Phosphorylation Control, which consisted of a synthetically phosphorylated peptide of the same sequence as the peptide substrate, was designed to allow for the calculation of percent phosphorylation. This control yielded a very low percentage of cleaved peptide in the Development Reaction. The 0% Phosphorylation and 100% Phosphorylation Controls allow for the calculation of the percent phosphorylation achieved in a specific reaction well.
# The minimum emission ratio in a screen was established by the 0% Inhibition Control, which contained active kinase. This control was designed to produce a 10-50% phosphorylated peptide in the Kinase Reaction. Cascade assays may produce up to 70% phosphorylated peptide.
# A known inhibitor control standard curve, 10 point titration, was run for each individual kinase on the same plate as the kinase to ensure the kinase was inhibited within an expected IC50 range previously determined.
# The following controls are prepared for each concentration of Test Compound assayed. […] The expected value for a non-interfering compound should be 100%. Any value outside of 90% to 110% was flagged. […] The expected value for a non-fluorescence compound should be 0%. Any value>20% was flagged.
# The data in Table A was calculated. XLfit from IDBS was used. The dose response curve was curve fit to model number 205 (sigmoidal dose-response model).
# Table 3 lists the MEK1 inhibition assay results of selected compounds according to the above procedure.
# A375 cells = assay: Assay 2: A375 (BRAF) GI50 cell-based assay (Cell Titer-Glo); conditions: Homo sapiens, A-375, 72 hours
# Experimental: (§1) Alternatively, the following procedure can be used to measure cell-based activity. Test compounds were dissolved in DMSO in 10 mM stock. Cell Titer-Glo® 2.0 Luminescent cell viability assay reagent was purchased from Promega (Madison, WI). A375 and HCT116 cell lines were purchased from American Type Culture Collection (Manassas, VA). For A375 cells, cell culture media was DMEM+10% FBS. For HCT116 cells, cell culture media was McCoy's 5A+10% FBS. All media were supplemented with 100 μg/mL of penicillin, and 100 μg/mL of streptomycin. Cultures were maintained at 37° C. in a humidified atmosphere of 5% CO2 and 95% air.
# (§2) Test compounds were diluted in DMSO solution with 10-dose and 3-fold dilutions in a source plate starting at 10 mM. 25 nL of each test compound was delivered from the source plate to each well of the 384-well cell culture plates (T=Final) by Echo 550. 25 μL of culture medium containing 2000 of A375 or HCT116 cells was added to each of the wells in duplicates of the cell culture plates (T=0 and T=Final). 25 μL of Cell Titer Glo 2.0 reagent was added to each well of cell culture plate (T=0). The contents were mixed on an orbital shaker for 2 min and incubated at room temperature for 15 min to stabilize luminescent signal. Luminescence was recorded by Envision 2104 Multilabel Reader (PerkinElmer, Santa Clara, CA). The number of viable cells in culture was determined based on quantitation of the ATP present in each culture well. The cells in cell culture plate (T=Final) were incubated with the compounds at 37° C., 5% CO2 for 72 hours. 25 μL of Cell Titer Glo 2.0 reagent was added to each well. The contents were mixed on an orbital shaker for 2 min and incubated at room temperature for 15 min to stabilize luminescent signal. Luminescence was recorded by Envision 2104 Multilabel Reader (PerkinElmer, Santa Clara, CA). The number of viable cells in culture was determined based on quantitation of the ATP present in each culture well. The GI50 curves were plotted using the GraphPad Prism 4 program based on a sigmoidal dose-response equation Y=Bottom+(Top-Bottom)/(1+10^((Log EC50−X)*HillSlope)). All parameters in the equation were calculated by GraphPad Prism 4 program. […] Accordingly, GI50 is the value of 10^X, where X was calculated by the Curve Fitting Equation when Y=50 using Excel.
# Assay 2 is the A375 (BRAF) GI50 (nM) cell-based assay as described in Example 39. A2 indicates an IC50 of less than or equal to 1 μM, and B2 indicates an IC50 of greater than 1 μM and less than or equal to 2 μM.
# HCT116 cells = assay: Assay 3: HCT116 (Kras) GI50 assay (Cell Titer-Glo); type: cell-based; conditions: Homo sapiens, HCT-116, 72 hours
# Experimental: as §1, §2
# Assay 3 is the HCT116 (Kras) GI50 (nM) assay as described in Example 39. A3 indicates an IC50 of less than or equal to 5 μM, and B3 indicates an IC50 of greater than 5 μM and less than or equal to 10 μM.
# [1] = Assay 4: liver S9 half-life stability assay; type: in vitro ADME; conditions: liver S9 fraction, pH 7.4; human liver S9, 1 μM test compound, NADPH
# Experimental: (§3) Compounds can be assessed for metabolic stability in human skin by assessing their rate of disappearance from human S9 skin fraction. Similarly, compounds can be assessed for metabolic stability in human liver by assessing their rate of disappearance from human S9 liver fraction. The protocol below is used to assess the difference between skin and hepatic metabolism.
# (§4) The assay was carried out in 96-well microtiter plates at 37° C. Reaction mixtures (25 μL) contained a final concentration of 1 μM test compound, 2 mg/mL liver or skin protein, and 1 mM NADPH in buffer (100 mM potassium phosphate, pH 7.4 buffer with 1 mM EDTA, 3 mM MgCl2). At each of the time points (0, 15, 30, and 60 minutes), 150 μL, of quench solution (100% acetonitrile with 0.1% formic acid) with internal standard was transferred to each well. […]
# (§5) All samples were analyzed on LC/MS/MS using an AB Sciex API 4000 instrument, coupled to a Shimadzu LC-20AD LC Pump system. […]
# (§6) The extent of metabolism was calculated as the disappearance of the test compound, compared to the 0-min control reaction incubations. Initial rates were calculated for the compound concentration and used to determine tin values and subsequently, the intrinsic clearance, CLint=(0.693)(1/t1/2 (min)) (mL incubation/mg of S9 protein). […]
# [2] = Assay 5: skin S9 half-life stability assay; type: in vitro ADME; conditions: skin S9 fraction, pH 7.4; human skin S9, 1 μM test compound, NADPH
# Experimental: as §3, §4, §5, §6
# [3] = Assay 6: liver microsomes half-life stability assay; type: in vitro ADME; conditions: pH 7.4; human liver microsomes, 1 μM test compound, NADPH
# Experimental: Metabolic stability of testing compound can be evaluated using human liver microsomes to predict intrinsic clearance. Human liver microsomes are obtained from Corning Gentest.
# The assay was carried out in 96-well microtiter plates at 37° C. Reaction mixtures (25 μL) contain a final concentration of 1 μM test compound, 0.5 mg/mL liver microsomes protein, and 1 mM NADPH in buffer (100 mM potassium phosphate, pH 7.4 buffer with 3 mM MgCl2). At each of the time points (0, 15, 30, and 60 minutes), 150 μL of quench solution (100% acetonitrile with 0.1% formic acid) with internal standard was transferred to each well. Verapamil was included as a positive control to verify assay performance. Plates were sealed and centrifuged at 4° C. for 15 minutes at 4000 rpm. The supernatant was transferred to fresh plates for LC/MS/MS analysis.
# as §5
# as §6, with “time incubation.” for “control reaction incubations.”, “t1/2” for “tin”, “(min))(g of liver/kg of body weight)(mL” for “(min)) (mL”, “microsomal protein)(45 mg of microsomal protein/g of liver weight).” for “S9 protein).”
# Chain of MEK1 (Q02750 whole entry): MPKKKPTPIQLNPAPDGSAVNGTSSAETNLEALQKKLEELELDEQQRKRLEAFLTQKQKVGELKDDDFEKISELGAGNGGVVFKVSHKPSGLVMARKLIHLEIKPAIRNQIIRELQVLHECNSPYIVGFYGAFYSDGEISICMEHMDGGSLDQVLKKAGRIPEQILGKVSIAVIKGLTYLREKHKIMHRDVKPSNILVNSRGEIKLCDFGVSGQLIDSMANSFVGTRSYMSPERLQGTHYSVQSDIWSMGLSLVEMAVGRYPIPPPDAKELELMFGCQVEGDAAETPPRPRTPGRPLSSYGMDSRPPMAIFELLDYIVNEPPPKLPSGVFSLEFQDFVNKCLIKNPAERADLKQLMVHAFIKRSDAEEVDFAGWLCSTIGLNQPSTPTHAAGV
pIC50 (MEK1),GI50 (A375 cells) [µM],GI50 (HCT116 cells) [µM],SMILES,other results
≥ 6.82,≤ 1,≤ 5,"O=C1CCCc2c1sc(Nc1ccc(I)cc1F)c2C(=O)NOCC1CC1 [Compound 1.032, N-(Cyclopropylmethoxy)-2-((2-fluoro-4-iodophenyl)amino)-7-oxo-4,5,6,7-tetrahydrobenzo[b]thiophene-3-carboxamide]",
≥ 6.82,,,"O=C1CCCc2c1sc(Nc1ccc(I)cc1F)c2C(=O)NC[C@@H](O)CO [Compound 1.035, (R)—N-(2,3-dihydroxypropyl)-2-((2-fluoro-4-iodophenyl)amino)-7-oxo-4,5,6,7-tetrahydrobenzo[b]thiophene-3-carboxamide]",
≥ 6.82,,,"NCCONC(=O)c1c(Nc2ccc(I)cc2F)sc2c1CCCC2=O [Compound 1.033, N-(2-Aminoethoxy)-2-(2-fluoro-4-iodophenylamino)-7-oxo-4,5,6,7-tetrahydrobenzo[b]thiophene-3-carboxamide hydrochloride]",
≥ 6.82,,,"O=C1CCCc2c1sc(Nc1ccc(I)cc1F)c2C(=O)NC[C@H](O)CO [Compound 1.034, (S)—N-(2,3-dihydroxypropyl)-2-((2-fluoro-4-iodophenyl)amino)-7-oxo-4,5,6,7-tetrahydrobenzo[b]thiophene-3-carboxamide]",

# The remaining lines, values behind:
SMILES,pIC50 (MEK1),GI50 (A375 cells) [µM],GI50 (HCT116 cells) [µM],other results
"O=C1CCCc2c1sc(Nc1ccc(I)cc1F)c2C(=O)NOC[C@H](O)CO [Compound 1.030, (R)—N-(2,3-Dihydroxypropoxy)-2-((2-fluoro-4-iodophenyl)amino)-7-oxo-4,5,6,7-tetrahydrobenzo[b]thiophene-3-carboxamide]",≥ 6.82,,,
"CC(=O)c1sc(Nc2ccc(I)cc2F)c(C(=O)NOCCO)c1C [Compound 1.013, 5-Acetyl-2-((2-fluoro-4-iodophenyl)amino)-N-(2-hydroxyethoxy)-4-methylthiophene-3-carboxamide]",,≤ 1,≤ 5,half-life at 1 μM [1]: ≤ 50 min; half-life at 1 μM [2]: ≥ 400 min; half-life at 1 μM [3]: ≤ 50 min
CC(=O)c1sc(Nc2ccc(I)cc2F)c(C(=O)NCC(C)(C)N)c1C [Compound 1.020],,≤ 1,5 to 10,
CC(=O)c1sc(Nc2ccc(I)cc2F)c(C(=O)NOCC2CC2)c1C [Compound 1.023],,≤ 1,5 to 10,
"CC(=O)c1sc(Nc2ccc(I)cc2F)c(C(=O)N[C@@H]2CCCNC2)c1C [Compound 1.016, (R)-5-acetyl-2-((2-fluoro-4-iodophenyl)amino)-4-methyl-N-(piperidin-3-yl)thiophene-3-carboxamide]",,1 to 2,≤ 5,
"CC(=O)c1sc(Nc2ccc(I)cc2F)c(C(=O)N[C@@H]2CCNC2)c1C [Compound 1.017, (R)-5-acetyl-2-((2-fluoro-4-iodophenyl)amino)-4-methyl-N-(pyrrolidin-3-yl)thiophene-3-carboxamide]",,1 to 2,≤ 5,
